For one data set, the system named is NTS1-H4 receptor. Nature of the data set: SPR competition of NT8-13 and SR142948 on NTS1-H4 receptor. It counts as binding, rat. The following applies: 100 nM NT8-13 then 100 nM SR142948 injected subsequently. How it is done:
Supplementary file pone.0175842.s003.pdf: S3 Fig Competition of neurotensin peptide NT8-13 and antagonist SR142948 on the NTS1-H4 receptor. NT8-13 agonist (saturating concentration of 100 nM) and antagonist SR142948 (saturating concentration of 100 nM) were injected subsequently over the NTS1-H4 receptor-coated surface. No binding of SR142948 was detected on the NTS1-H4 receptor that had been saturated previously by agonist NT8-13 peptide, indicating complete occupancy of the binding site and binding to the same binding site. (PDF) Click here for additional data file.

The target of the next data set is rat NTS1-H4 receptor. Nature of the data set: SPR kinetic binding of reference ligands on captured NTS1-H4 receptor. How it is done: All SPR binding experiments were performed on Biacore® 3000, T200 and Biacore 4000 (GE Healthcare, Uppsala, Sweden) instruments at 15°C in a running buffer composed of 20 mM Tris, 150 mM NaCl, 0.01% (v/v) L-MNG, 2% (v/v) DMSO, pH 8.0, at flow of 30 μl·min^-1. Running buffer was prepared freshly every day and filtered with Express™Plus Steritop filters with 0.22 μm cut off (Millipore, Billerica, MA, USA) and degassed prior to SPR analysis. Dose-response experiments for peptides were performed in the buffer without DMSO, as the analyzed peptide concentration range was in nM range and it was not necessary to work with DMSO in the running buffer to correct for the resonance signals. […]
All SPR data processing and analyses were performed using BiaEvaluation Software (version 1.0 (Biacore 4000) and 4.1 (Biacore 3000)), and GraphPadPrism (version 6.04). All monitored binding resonance signals were corrected regarding DMSO solvent signals and further double-referenced, i. e., signals monitored on the binding active channel were subtracted by signals from the reference channel (sensor surface not modified with any reference protein) and by buffer signals. […]
On the technique in general: Surface plasmon resonance follows binding to a sensor surface in real time, without labels.

The target of another data set is NTS1-H4. Details: method as in PMID 25064156. The settings on record: competition with fluorescently labeled NT8-13, NTS1-H4-coated beads; cited from earlier work.
A short description of the next data set: pKa determination. It counts as physicochemical.

Where two headings read alike, the source gives them in different places.

Turning to SR142948, in the data set with NTS1-H4 receptor, the “binding to NTS1-H4 receptor previously saturated by NT8-13” value is listed as “No binding”. Also, binding at rat NTS1-H4 receptor was put at a Kd of 0.4 nM. Besides, the Ki (as a rule, the equilibrium dissociation constant of an inhibitor or competing ligand from its target) at NTS1-H4 is 0.5 nM. Take `Nc1nnc2c(C(F)(F)F)nc3ccccc3n12` [fragment 1]: the pKa in the data set “pKa determination” (read-out: pKa1 ± σ) is 2.14 ± 0.04.

For the compound `COc1cccc(S(=O)(=O)c2ccccc2CC(N)=O)c1` [fragment 2], the “pKa1 ± σ” value in the data set “pKa determination” is given as “out of range”.

Turning to `COc1ccc(Cc2nn[nH]n2)cc1` [fragment 4], the pKa in “pKa determination” (read-out: pKa1 ± σ) amounted to 4.86 ± 0.08. Take `COc1ccc(N(C(C)C)S(N)(=O)=O)cc1` [fragment 3]: the pKa in “pKa determination” (read-out: pKa1 ± σ) stood at 6.49 ± 0.04; in “pKa determination” (read-out: pKa2) it was 11.04 ± 0.08.
